In patent US20090270453A1, “ANTI-MANIC EFFECTIVE DOSES OF SERTINDOLE” (priority 2007, published 2009):
“Also recorded” adds a separate entry of the source.

Assays:
[1] = system: sensitized response to an acute AMPH challenge; details: mice; Husum 2005, poster no. 32.06; cited from earlier work
[2] = system: AMPH+CDP induced locomotor activity; details: rats; Lamberty, et al. 2001; cited from earlier work
[3] = system: sensitized response to an acute AMPH challenge; assay: Sensitized AMPH response model (induced hyperactivity); format: in vivo, Male Crl:NMRI mice; details: for effect on AMPH induced hyperactivity in sensitized mice: s.c. pre-treatment, about 30 min recording
Procedure: (§1) Subjects: Male Crl:NMRI mice (about 20 g) were at the animal facility about 5 days prior to the start of the experiment and were housed in climate-controlled animal facilities under normal light-dark cycle (lights on about 06:00 to about 18:00). The mice were kept 6 per cage and allowed enrichment (two plastic houses+nesting material).
(§2) Drugs: All compounds were administered subcutaneously and are listed as free base doses. The mice were pre-treated with either d-amphetamine (about 1.8 mg/kg) or vehicle (about 0.9% NaCl, about 10 ml/kg) once daily for five consecutive days.
Test procedure: About 17-19 days after the pre-treatment, the animals were treated with test substance or vehicle and individually placed to habituate for about 30 min in motility boxes (about 20×about 32 cm) equipped with about 5×about 8 light sources and infrared cells spaced by about 4 cm. The light beams crossed the cage 1.8 cm above the bottom of the cage. Recording of a motility count requires interruption of adjacent light beams, thus avoiding counts induced by stationary movements of the mice. After habituation, an acute dose of d-amphetamine (about 0.95 mg/kg) or vehicle was administered and data acquisition was begun and lasted for about 30 min.
(§3) Data Analysis: Data were averaged within the groups (n=12) and are presented as mean±SD. The acute effect of test substance against the sensitized response to amphetamine was statistically evaluated by one-way ANOVA of variance: Dunn's method was applied for post hoc testing against the sensitized group receiving (NaCl, about 1 ml/kg) followed by CDP (about 8.9 mg/kg in 10% hydroxypropyl-beta-cyclodextrin) was administrated about 35 minutes before the test. A parallel set of control animal received two vehicle injections.

[4] = system: baseline locomotor activity of control rats; assay: Baseline locomotor activity of control rats in locomotor box; format: in vivo, Male Wistar rats; details: for Average Crossings in % (SEM): % of control group set to 100%; for effect on baseline (basal) locomotor activity: locomotor box about 2 hours, administered doses
Procedure: (§4) Subjects: Male Wistar rats weighing about 150-200 g were housed 2-4 rats per cage in makrolon cages (about 20×about 35 cm) equipped with sawdust and with one plastic house for enrichment. The animals were kept at room temperature (about 20° C.±2) in about 12-hour light/dark cycle (lights on at about 06:00) with free access to food and tap water. The rats were allowed to acclimatize to the animal facility premises for about 5-9 days prior to the initiation of experiments. The animals were taken to the experimental room on the day before the experiment and weighed.
(§5) Test procedure: For the assessment of locomotor activity, makrolon cages (about 20×about 35 cm) with a thin layer of standard bedding material were placed in a U-frame equipped longitudinally with 4 infrared light sources and photocells placed about 4 cm above the bottom of the cage. All experiments were conducted under normal light conditions. The animals were placed individually in test boxes and the assessment of locomotor activity was immediately begun. During the test session, locomotor activity was recorded as crossings of infrared light beams and total locomotor activity was the accumulated number of crossings over the approximately 120-min period. The recording of a motility count required the crossing of two adjacent light beams, thus avoiding counts induced by stationary movements of the rat.
Statistical analysis of differences in total locomotor activity (normalized data) among the various treatment groups was carried out using a two-way ANOVA with factors treatment (AMPH+CDP vs. vehicle) and drug (drug vs. vehicle). In case of a significant interaction, a post hoc Student-Newman-Keuls Method was used for multiple comparisons. A probability level of 0.05 was considered significant.

schizophrenic patients = details: human clinical studies; Daniel D, et al. 1995; cited from earlier work
serotonin 5-HT2 = details: Sanchez et al. 1991; Arnt and Skarsfeldt 1998; cited from earlier work
dopamine D2 = dopamine D2 (Homo sapiens, UniProt P14416); details: Sanchez et al. 1991; Arnt and Skarsfeldt 1998; cited from earlier work
[5] = system: AMPH+CDP induced locomotor activity; assay: Sensitized AMPH+CDP response model (induced locomotor hyperactivity); format: in vivo, Male Wistar rats; details: for effect on AMPH+CDP induced locomotor activity (hyperactivity): rats, s.c. pre-treatment, about 120 min test-period
Procedure: as §4
Drugs: All drugs are listed as mg free base/kg with the exception of lithium (mEq/kg). Drug solutions were titrated into a pH range of about 4.5-7.0 for subcutaneous (s.c.) administration. To induce hyperactivity, amphetamine sulphate (about 0.9 mg/kg in about 0.9% NaCl, about 1 ml/kg) followed by CDP (7-Chloro-2-(methylmino)-5-phenyl-3h-1,4-benzodiazepine-4-oxide, about 8.9 mg/kg in about 10% hydroxypropyl-beta-cyclodextrin) was administrated about 35 minutes before the test. A parallel set of control animal received two vehicle injections. Lithium chloride (about 0.2-0.9 mEq/kg) was dissolved in distilled water isosmotically supplemented with NaCl, and administrated about 210 minutes before testing. Lamotrigine (6-(2,3-Dichloro-phenyl)-[1,2,4]-triazine-3,5-diamine, about 2.5-80 mg/kg) was dissolved in about 10% hydroxypropyl-beta-cyclodextrin and administrated about 30 minutes before the test.
as §5
Data Analysis: The average total basal locomotor activity of the control groups in the different experiments varied between 322-516 light beam crossings (see Table 1). Due to this variation, the results in each experiment were normalized to percentage activity relative to the average total locomotor activity of control group that was set as 100%. Statistical analysis of differences in total locomotor activity (normalized data) among the various treatment groups was carried out using a two-way ANOVA with factors treatment (AMPH+CDP vs. vehicle) and drug (drug vs. vehicle). In case of a significant interaction, a post hoc Student-Newman-Keuls Method was used for multiple comparisons. A probability level of 0.05 was considered significant.
Crossings of light-beams as a measure of locomotor activity over about a 120 min test-period is shown as percentage of the control group-level that is set to 100%. The bars show the mean±SEM for each group and the dots show the activity of individual rats (n=10-12). Administration of amphetamine (about 0.9 mg/kg, s.c.) and chlordiazepoxide (about 8.9 mg/kg, s.c.) produced a significant increase in locomotor activity (***p<0.001 vs. control group (O) in all experiments).

saline activity = assay: Activity of saline (non-AMPH) mice in the sensitized AMPH response model; format: in vivo, Male Crl:NMRI mice; details: sertindole about 0.63 mg/kg
Procedure: as §1, §2
Test procedure: About 17-19 days after the pre-treatment, the animals were treated with test substance or vehicle and individually placed to habituate for about 30 min in motility boxes (about 20×about 32 cm) equipped with about 5×about 8 light sources and infrared cells spaced by about 4 cm. The light beams crossed the cage 1.8 cm above the bottom of the cage. […]
as §3, with “A parallel set of control animal received two vehicle injections.” left out

α1-adrenergic receptors = details: Sanchez et al. 1991; Arnt and Skarsfeldt 1998; cited from earlier work

Sequence of dopamine D2 (P14416 whole entry): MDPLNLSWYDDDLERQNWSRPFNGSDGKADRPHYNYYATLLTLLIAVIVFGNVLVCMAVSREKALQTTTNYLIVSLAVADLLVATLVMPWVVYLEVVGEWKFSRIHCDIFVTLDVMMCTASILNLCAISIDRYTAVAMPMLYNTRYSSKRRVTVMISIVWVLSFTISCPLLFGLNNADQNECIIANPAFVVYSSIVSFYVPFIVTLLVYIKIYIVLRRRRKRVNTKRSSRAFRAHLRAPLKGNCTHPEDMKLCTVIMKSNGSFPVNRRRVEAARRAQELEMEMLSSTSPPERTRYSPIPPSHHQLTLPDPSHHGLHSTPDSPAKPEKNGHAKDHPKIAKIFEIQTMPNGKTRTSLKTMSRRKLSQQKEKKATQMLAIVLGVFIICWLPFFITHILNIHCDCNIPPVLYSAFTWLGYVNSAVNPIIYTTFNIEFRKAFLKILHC

O=C(CCCN1CCC(O)(c2ccc(Cl)cc2)CC1)c1ccc(F)cc1 [haloperidol]
effect on the sensitized response to an acute AMPH challenge [1]: reversed the effect of acute AMPH administration

CCCC(CCC)C(=O)O [valproate]
effect on the sensitized response to an acute AMPH challenge [1]: dose-dependently abolish; also recorded: reversed the effect of acute AMPH administration
effectiveness in the AMPH+CDP induced hyperactivity model [2]: effective

CN(C)CCCC1(c2ccc(F)cc2)OCc2cc(C#N)ccc21 (centres unmarked) [citalopram]
effect on AMPH induced hyperactivity in sensitized mice [3]: no effect
effect on AMPH induced hyperactivity in sensitized mice ([3]; listed as Citalopram): inactive
Average Crossings in % (SEM) ([4]; 0.8 mg/kg): 71.0%
effect on baseline (basal) locomotor activity [4]: no significant effect

NC(=O)N1c2ccccc2C=Cc2ccccc21 [carbamazepine]
effect on the sensitized response to an acute AMPH challenge [1]: dose-dependently abolish; also recorded: reversed the effect of acute AMPH administration
effectiveness in the AMPH+CDP induced hyperactivity model [2]: effective

O=C1NCCN1CCN1CCC(c2cn(-c3ccc(F)cc3)c3ccc(Cl)cc23)CC1 [sertindole]
effect on AMPH induced hyperactivity in sensitized mice [3]: reversed the induced hyperactivity; also recorded: significantly decreased; also recorded: active
effect on induced hyperactivity ([3]; sertindole 0.16 mg/kg): significantly reversed the induced hyperactivity
doses effective to treat schizophrenic patients (schizophrenic patients): 12 to 24 mg/day
affinity for serotonin 5-HT2 (serotonin 5-HT2): high affinity
affinity for dopamine D2 (dopamine D2): high affinity
effect on AMPH+CDP induced locomotor activity (hyperactivity) [5]: reduced the induced locomotor activity; also recorded: significantly decreased; also recorded: active
significance of reduction of AMPH+CDP induced locomotor activity ([5]; sertindole about 0.16 mg/kg, about 120 min s.c. pre-treatment): significant
significance of reduction of AMPH+CDP induced locomotor activity ([5]; sertindole about 1.25 mg/kg, about 120 min s.c. pre-treatment): significant
effect on saline activity (saline activity): significantly decreased the saline activity
Average Crossings in % (SEM) ([4]; 0.02 mg/kg): 116.7%
Average Crossings in % (SEM) ([4]; 0.16 mg/kg): 119.9%
Average Crossings in % (SEM) ([4]; 1.25 mg/kg): 132.4%
effect on baseline (basal) locomotor activity [4]: no significant effect
affinity for α1-adrenergic receptors (α1-adrenergic receptors): high affinity

Nc1nnc(-c2cccc(Cl)c2Cl)c(N)n1 [lamotrigine, 6-(2,3-Dichloro-phenyl)-[1,2,4]-triazine-3,5-diamine]
significance of reduction of AMPH+CDP induced locomotor activity ([5]; lamotrigine about 20 mg/kg, about 30 min s.c. pre-treatment): significant
significance of reduction of AMPH+CDP induced locomotor activity ([5]; lamotrigine about 20 mg/kg, about 30 min s.c. pre-treatment, listed as Lamotrigine): significantly counteracted
significance of reduction of AMPH+CDP induced locomotor activity ([5]; lamotrigine about 40 mg/kg, about 30 min s.c. pre-treatment): significant
significance of reduction of AMPH+CDP induced locomotor activity ([5]; lamotrigine about 40 mg/kg, about 30 min s.c. pre-treatment, listed as Lamotrigine): significantly counteracted
significance of reduction of AMPH+CDP induced locomotor activity ([5]; lamotrigine about 80 mg/kg, about 30 min s.c. pre-treatment): significant
significance of reduction of AMPH+CDP induced locomotor activity ([5]; lamotrigine about 80 mg/kg, about 30 min s.c. pre-treatment, listed as Lamotrigine): significantly counteracted
effect on AMPH+CDP induced locomotor activity (hyperactivity) [5]: significantly reduced; also recorded: reduced the induced locomotor activity
effect on AMPH+CDP induced locomotor activity (hyperactivity) ([5]; listed as Lamotrigine): significantly and dose-dependently decreased
Average Crossings in % (SEM) ([4]; 2.5 mg/kg): 114.5%
Average Crossings in % (SEM) ([4]; 10 mg/kg): 107.9%
Average Crossings in % (SEM) ([4]; 20 mg/kg): 97.2%
Average Crossings in % (SEM) ([4]; 40 mg/kg): 82.0%
Average Crossings in % (SEM) ([4]; 80 mg/kg): 83.0%
effect on baseline (basal) locomotor activity [4]: not reduced; also recorded: no significant effect
effect on the sensitized response to an acute AMPH challenge [1]: dose-dependently abolish; also recorded: reversed the effect of acute AMPH administration
